Legend:
Assay type in all cases: in vivo
[1] = tested on: Diabrotica undecimpunctata (southern corn rootworm); experiment: Method B: Diabrotica undecimpunctata (southern corn rootworm) screen; conditions: concentration 10 ppm; eggs on filter paper with maize seed; assessed 6 days after application
Excerpt: METHOD B: Diabrotica undecimpunctata (southern corn rootworm) screen
Two days before application, seeds of maize were soaked in water under warm conditions to elicit fast germination. One day before application, eggs of Diabrotica undecimpunctata were transferred to one half of a Japanese filter paper placed in a plastic petri dish. Afterwards, a sprouted maize seed was placed on a moistened pad beside the filter paper. Three drops of 200 microlitres of test compound solution were carefully pipetted onto the egg. The remainder of the solution was placed on the maize and then the Petri dish was closed. The treated eggs in the Petri dishes were held in a climate chamber for 6 days. The compound efficacy (percentage of dead eggs and/or larvae in comparison to untreated control) was assessed 6 days after application using a binocular microscope. Compound number 1-1 gave at least 60% control with the concentration at 10 ppm.

Nilaparvata lugens = experiment: Method C: Rice leafhopper screen; conditions: foliar, 144 h, read-out: control of Nilaparvata lugens (mortality among leafhopper larvae)
Description: METHOD C: Rice leafhopper screen
The leaves of rice plants are dipped for 5 seconds into an aqueous solution of the formulated preparation to be examined. After the solution has run off, the rice plants are placed in a Petri dish and populated with about 20 larvae (L3 stage) of the rice leafhopper species Nilaparvata lugens. The Petri dish is closed and then stored in a climatized chamber (16 hours of light/day, 25° C., 40-60% relative atmospheric humidity). After 6 days storage, the mortality among the leafhopper larvae is determined. Compound number 1-1 gave at least 60% control of Nilaparvata lugens with the concentration of 10 ppm.

[2] = tested on: tobacco budworm (Heliothis virescens); experiment: Method E: Heliothis virescens screen; conditions: concentration 100 ppm; egg dip; after 6 days
Description: METHOD E: Heliothis Virescens Screen
A Petri dish whose bottom is covered with filter paper and which contains about 5 ml of culture medium is prepared. Pieces of filter paper with about 30, 24-hour-old eggs of the tobacco budworm (Heliothis virescens) are dipped into an aqueous solution of the formulated preparation to be examined for about 5 seconds and subsequently placed into the Petri dish. A further 200 μl of the aqueous solution are dropped over the culture medium. The Petri dish is closed and then kept at about 25° C. in a climatized chamber. After 6 days storage, the effect of the preparation on the eggs and the larvae which may have hatched from these is determined. Compound number 1-1 gave at least 50% control of tobacco budworm with the concentration at 100 ppm.

[3] = tested on: Rhipicephalus sanguineus (Brown dog tick); experiment: Method D: screening method to test contact activity against Rhipicephalus sanguineus; conditions: test concentration 10 ppm; filter paper contact; L1 larvae; 24 hours after application
Description: METHOD D: Screening method to test contact activity against Rhipicephalus sanguineus (Brown dog tick)
Solutions of the test compounds were dropped onto filter paper, dried and the filter paper placed into test tubes and infested with 20-30 larvae (L1) of Rhipicephalus sanguineus and the tubes closed with a clip. The treated Rhipicephalus sanguineus were held in a climate chamber (25° C., 90% RH) and the percentage efficacy assessed 24 hours after application in comparison with the untreated control.

[4] = tested on: Frankliniella occidentalis; experiment: Method F: Thrip (Frankliniella occidentalis) screen; conditions: concentration 100 ppm; French bean leaf dip; mixed population; after 7 days
Description: METHOD F: Thrip (Frankliniella occidentalis) Screen
French bean plants are cut at the base of the stem and transferred into bottles filled with tap water. The leaves are then dipped for 5 seconds into an aqueous solution of the formulated preparation to be examined. After the solution has run off, the leaves are infested with 20-30 individuals of a mixed population of flower thrips (Frankliniella occidentalis) and then stored in a controlled-environment cabinet at approx. 25° C. After 7 days storage, the effect of the preparation on the thrips is determined. Compound number 1-1 gave at least 70% control of Frankliniella occidentalis at the concentration of 100 ppm.

[5] = tested on: Ctenocephalides felis (Cat flea); experiment: Method A: screening method to test systemicity against Ctenocephalides felis (artificial dog test, treated bovine blood); conditions: test concentration 1 ppm in bovine blood; 10 adults; assessment at 24 and 48 hours
Description: METHOD A: Screening method to test systemicity of compounds against Ctenocephalides felis (Cat flea)
A test container was filled with 10 adults of Ctenocephalides felis. A glass cylinder was closed on one end with parafilm and placed on top of the test container. The test compound solution was then pipetted into bovine blood and added to the glass cylinder. The treated Ctenocephalides felis were held in this artificial dog test (blood 37° C., 40-60% relative humidity; Ctenocephalides felis 20-22° C., 40-60% relative humidity) and assessment performed at 24 and 48 hours after application.

SMILES | control (percentage of dead eggs and/or larvae in comparison to untreated control) [1] | mortality at 10 ppm (Nilaparvata lugens) [%] | control of tobacco budworm (effect on eggs and larvae) [2] | control (percentage efficacy in comparison with untreated control) [3] | control of Frankliniella occidentalis [4] | control of Ctenocephalides felis [5]
C=CN(C)c1c(S(=O)(=O)C(F)(F)F)c(C#N)nn1-c1c(Cl)cc(C(F)(F)F)cc1Cl [Compound 1-1, 1-[2,6-dichloro-4-(trifluoromethyl)phenyl]-5-[methyl(vinyl)amino]-4-[(trifluoromethyl)sulfonyl]-1H-pyrazole-3-carbonitrile] | at least 60% | ≥ 60 | at least 50% | at least 50% | at least 70% | at least 50%
CN(CCI)c1c(S(=O)(=O)C(F)(F)F)c(C#N)nn1-c1c(Cl)cc(C(F)(F)F)cc1Cl [Intermediate Example 2, 1-[2,6-dichloro-4-(trifluoromethyl)phenyl]-5-[(2-iodoethy)(methyl)amino]-4-[(trifluoromethyl)sulfonyl]-1H-pyrazole-3-carbonitrile] |  |  |  |  |  | at least 70%

From patent US7678384B2, “Vinylaminopyrazole derivatives as pesticides” (Merial Limited, priority 2004, dated 2010)
